Columns and labels:
Assay type in all cases: in vivo
Apera spica-venti = assay: Test Example 4: herbicidal effect by soil treatment (symbol L); details: application herbicide amount 320 g/ha
Summary of the method: (§1)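 Seeds were sown in sterilized diluvial soil, covered with about 1.5 cm of soil, and the soil surface was sprayed with a water-diluted emulsion of the compound at a predetermined rate. Plants grew in a greenhouse at 25° C. to 30° C.; effects were scored visually 3 weeks after application.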

Galium spurium = assay: Test Example 5: herbicidal effect by foliage application, plastic box (symbol Q); details: 320 g/ha, 3 weeks after application
Summary of the method: (§2)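 Greenhouse foliar test: seedlings at 14 days, grown 25° C. to 30° C. in sterilized diluvial soil; compound applied as an aqueous dilution of an emulsion; response read 3 weeks after spraying.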

[1] = tested on: Echinochloa oryzacola Vasing.; assay: Test Example 1: herbicidal activity, application before weed generation in submerged conditions (symbol A); details: application herbicide amount 320 g/ha
Summary of the method: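 Greenhouse growth at 25–30 °C lasted 3 weeks after treatment, when each weed was graded 0–5 by herbicidal ratio. Treatment was a diluted emulsion applied to the water surface of 4 cm-submerged alluvial soil on the sowing day.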

Abutilon theophrasti = assay: Test Example 4: herbicidal effect by soil treatment (symbol M)
Summary of the method: as §1

soybean = assay: Test Example 5: effect on crop by foliage application, plastic box (symbol d); details: 320 g/ha, 3 weeks after application
Summary of the method: (§3)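 Seeds were sown in spots in sterilized diluvial soil held in a plastic box 21 cm × 13 cm × 7 cm deep, covered with about 1.5 cm of soil, and grown in a greenhouse at 25° C. to 30° C.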

corn = assay: Test Example 5: effect on crop by foliage application, plastic box (symbol c); details: 320 g/ha, 3 weeks after application
Summary of the method: as §3

Cyperus difformis = assay: Test Example 3: herbicidal effect by foliage application, Wagner pot (symbol E); details: application herbicide amount 320 g/ha
Summary of the method: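 Weeds and rice were sown in alluvial soil under 0.1–0.5 cm of standing water and grown for 14 days in a 25–30 °C greenhouse. An emulsion of the compound, diluted in water to a set dose, was sprayed evenly onto the foliage. Effect was scored against fixed criteria 3 weeks after treatment.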

Amaranthus retroflexus = assay: Test Example 4: herbicidal effect by soil treatment (symbol N)
Summary of the method: as §1

Chenopodium album = assay: Test Example 5: herbicidal effect by foliage application, plastic box (symbol O); details: 320 g/ha, 3 weeks after application
Summary of the method: as §2

wheat = assay: Test Example 4: effect on crop by soil treatment (symbol e); details: for e: wheat, effect on crop grade / e (wheat) effect on crop grade: application herbicide amount 320 g/ha; for e: wheat, effect grade on crop: 320 g/ha
Summary of the method: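 Plants grew in a 25° C. to 30° C. greenhouse after spot-sowing of seeds, including beet, rapeseed, wheat and rice, into sterilized diluvial soil under roughly 1.5 cm of cover soil.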

Veronica persica = assay: Test Example 5: herbicidal effect by foliage application, plastic box (symbol R); details: 320 g/ha, 3 weeks after application
Summary of the method: as §2

[2] = application herbicide amount 320 g/ha

CCC(CCC1CC(O)=C(c2c(C)cc(C)cc2C)C1=O)=NOC (mixture of isomers) [4-001]
L: Apera spica-venti, herbicidal effect grade (Apera spica-venti): 5 (Herbicidal ratio of 90% or more (almost completely withered)) | Q: Galium spurium, herbicidal effect grade (Galium spurium): 0 (Herbicidal ratio of 5% or lower (almost no effect)) | Herbicidal effect grade, A: Echinochloa oryzacola Vasing. [1]: 0 (Herbicidal ratio of 5% or lower (almost no effect)) | M: Abutilon theophrasti, herbicidal effect grade (Abutilon theophrasti; [2]): 0 (Herbicidal ratio of 5% or lower (almost no effect)) | d: soybean, effect on crop grade (soybean): 0 (Herbicidal ratio of 5% or lower (almost no effect)) | c: corn, effect on crop grade (corn): 1 (Herbicidal ratio of 5% or higher and lower than 20%) | herbicidal effect on E, grade 0-5 (Cyperus difformis): 0 (Herbicidal ratio of 5% or lower (almost no effect)) | N: Amaranthus retroflexus, herbicidal effect grade (Amaranthus retroflexus; [2]): 0 (Herbicidal ratio of 5% or lower (almost no effect)) | O: Chenopodium album, herbicidal effect grade (Chenopodium album): 0 (Herbicidal ratio of 5% or lower (almost no effect)) | e: wheat, effect on crop grade (wheat): 0 (Herbicidal ratio of 5% or lower (almost no effect))

CCc1cc(-n2cc(Cl)cn2)cc(C)c1C1=C(O)CC(CC(C)=NOC)C1=O (mixture of isomers) [6-005]
L: Apera spica-venti, herbicidal effect grade (Apera spica-venti): 5 (Herbicidal ratio of 90% or more (almost completely withered)) | Q: Galium spurium, herbicidal effect grade (Galium spurium): 3 (Herbicidal ratio of 40% or higher and lower than 70%) | Herbicidal effect grade, A: Echinochloa oryzacola Vasing. [1]: 5 (Herbicidal ratio of 90% or more (almost completely withered)) | M: Abutilon theophrasti, herbicidal effect grade (Abutilon theophrasti; [2]): 0 (Herbicidal ratio of 5% or lower (almost no effect)) | d: soybean, effect on crop grade (soybean): 4 (Herbicidal ratio of 70% or higher and lower than 90%) | c: corn, effect on crop grade (corn): 5 (Herbicidal ratio of 90% or more (almost completely withered)) | herbicidal effect on E, grade 0-5 (Cyperus difformis): 3 (Herbicidal ratio of 40% or higher and lower than 70%) | N: Amaranthus retroflexus, herbicidal effect grade (Amaranthus retroflexus; [2]): 0 (Herbicidal ratio of 5% or lower (almost no effect)) | O: Chenopodium album, herbicidal effect grade (Chenopodium album): 3 (Herbicidal ratio of 40% or higher and lower than 70%) | e: wheat, effect on crop grade (wheat): 4 (Herbicidal ratio of 70% or higher and lower than 90%)

CC#Cc1cc(C)c(C2=C(O)CC(CC(C)=NOC)C2=O)c(C)c1 (mixture of isomers) [6-009]
L: Apera spica-venti, herbicidal effect grade (Apera spica-venti): 5 (Herbicidal ratio of 90% or more (almost completely withered)) | Q: Galium spurium, herbicidal effect grade (Galium spurium): 0 (Herbicidal ratio of 5% or lower (almost no effect)) | Herbicidal effect grade, A: Echinochloa oryzacola Vasing. [1]: 5 (Herbicidal ratio of 90% or more (almost completely withered)) | M: Abutilon theophrasti, herbicidal effect grade (Abutilon theophrasti; [2]): 5 (Herbicidal ratio of 90% or more (almost completely withered)) | d: soybean, effect on crop grade (soybean): 3 (Herbicidal ratio of 40% or higher and lower than 70%) | c: corn, effect on crop grade (corn): 5 (Herbicidal ratio of 90% or more (almost completely withered)) | herbicidal effect on E, grade 0-5 (Cyperus difformis): 0 (Herbicidal ratio of 5% or lower (almost no effect)) | N: Amaranthus retroflexus, herbicidal effect grade (Amaranthus retroflexus; [2]): 5 (Herbicidal ratio of 90% or more (almost completely withered)) | O: Chenopodium album, herbicidal effect grade (Chenopodium album): 2 (Herbicidal ratio of 20% or higher and lower than 40%) | e: wheat, effect on crop grade (wheat): 5 (Herbicidal ratio of 90% or more (almost completely withered))

CON=C(C)CC1CC(OCCSC)=C(c2c(C)cc(C)cc2C)C1=O (centres unmarked) [1-011]
L (Apera spica-venti) herbicidal effect grade (Apera spica-venti): 0 (Herbicidal ratio of 5% or lower (almost no effect)) | Herbicidal effect grade, A: Echinochloa oryzacola Vasing. [1]: 0 (Herbicidal ratio of 5% or lower (almost no effect)) | M (Abutilon theophrasti) herbicidal effect grade (Abutilon theophrasti; [2]): 0 (Herbicidal ratio of 5% or lower (almost no effect)) | d: soybean, effect on crop grade (soybean): 0 (Herbicidal ratio of 5% or lower (almost no effect)) | c: corn, effect on crop grade (corn): 0 (Herbicidal ratio of 5% or lower (almost no effect)) | herbicidal effect on E, grade 0-5 (Cyperus difformis): 0 (Herbicidal ratio of 5% or lower (almost no effect)) | N (Amaranthus retroflexus) herbicidal effect grade (Amaranthus retroflexus; [2]): 0 (Herbicidal ratio of 5% or lower (almost no effect)) | R: Veronica persica, herbicidal effect grade (Veronica persica): 0 (Herbicidal ratio of 5% or lower (almost no effect)) | O: Chenopodium album, herbicidal effect grade (Chenopodium album): 0 (Herbicidal ratio of 5% or lower (almost no effect)) | e (wheat) effect on crop grade (wheat): 0 (Herbicidal ratio of 5% or lower (almost no effect))

CON=C(C)CC1CC(OCC#N)=C(c2c(C)cc(C)cc2C)C1=O (centres unmarked) [1-013]
Herbicidal effect grade, A: Echinochloa oryzacola Vasing. [1]: 0 (Herbicidal ratio of 5% or lower (almost no effect)) | M (Abutilon theophrasti) herbicidal effect grade (Abutilon theophrasti; [2]): 0 (Herbicidal ratio of 5% or lower (almost no effect)) | d: soybean, effect on crop grade (soybean): 0 (Herbicidal ratio of 5% or lower (almost no effect)) | c: corn, effect on crop grade (corn): 0 (Herbicidal ratio of 5% or lower (almost no effect)) | herbicidal effect on E, grade 0-5 (Cyperus difformis): 0 (Herbicidal ratio of 5% or lower (almost no effect)) | N (Amaranthus retroflexus) herbicidal effect grade (Amaranthus retroflexus; [2]): 0 (Herbicidal ratio of 5% or lower (almost no effect)) | R: Veronica persica, herbicidal effect grade (Veronica persica): 0 (Herbicidal ratio of 5% or lower (almost no effect)) | O: Chenopodium album, herbicidal effect grade (Chenopodium album): 0 (Herbicidal ratio of 5% or lower (almost no effect)) | e (wheat) effect on crop grade (wheat): 0 (Herbicidal ratio of 5% or lower (almost no effect))

CON=C(C)CC1CC(OC(=O)OC)=C(c2c(C)cc(C)cc2C)C1=O (centres unmarked) [1-014]
L (Apera spica-venti) herbicidal effect grade (Apera spica-venti): 5 (Herbicidal ratio of 90% or more (almost completely withered)) | Herbicidal effect grade, A: Echinochloa oryzacola Vasing. [1]: 5 (Herbicidal ratio of 90% or more (almost completely withered)) | M (Abutilon theophrasti) herbicidal effect grade (Abutilon theophrasti; [2]): 4 (Herbicidal ratio of 70% or higher and lower than 90%) | d: soybean, effect on crop grade (soybean): 5 (Herbicidal ratio of 90% or more (almost completely withered)) | c: corn, effect on crop grade (corn): 5 (Herbicidal ratio of 90% or more (almost completely withered)) | herbicidal effect on E, grade 0-5 (Cyperus difformis): 5 (Herbicidal ratio of 90% or more (almost completely withered)) | R: Veronica persica, herbicidal effect grade (Veronica persica): 3 (Herbicidal ratio of 40% or higher and lower than 70%) | O: Chenopodium album, herbicidal effect grade (Chenopodium album): 3 (Herbicidal ratio of 40% or higher and lower than 70%)

CON=C(C)CC1CC(OC(=O)c2ccccc2OC(F)(F)F)=C(c2c(C)cc(C)cc2C)C1=O (centres unmarked) [1-155]
Q: Galium spurium, herbicidal effect (criteria 0-5) (Galium spurium): 0 (Herbicidal ratio of 5% or lower (almost no effect)) | Herbicidal effect grade, A: Echinochloa oryzacola Vasing. [1]: 5 (Herbicidal ratio of 90% or more (almost completely withered)) | M: Abutilon theophrasti, herbicidal effect grade (Abutilon theophrasti; 320 g/ha): 5 (Herbicidal ratio of 90% or more (almost completely withered)) | d: soybean, effect on crop (criteria 0-5) (soybean): 3 (Herbicidal ratio of 40% or higher and lower than 70%) | c: corn, effect on crop (criteria 0-5) (corn): 4 (Herbicidal ratio of 70% or higher and lower than 90%) | herbicidal effect on E, grade 0-5 (Cyperus difformis): 5 (Herbicidal ratio of 90% or more (almost completely withered)) | N: Amaranthus retroflexus, herbicidal effect grade (Amaranthus retroflexus; 320 g/ha): 5 (Herbicidal ratio of 90% or more (almost completely withered)) | R: Veronica persica, herbicidal effect (criteria 0-5) (Veronica persica): 3 (Herbicidal ratio of 40% or higher and lower than 70%) | O: Chenopodium album, herbicidal effect (criteria 0-5) (Chenopodium album): 0 (Herbicidal ratio of 5% or lower (almost no effect)) | e: wheat, effect grade on crop (wheat): 3 (Herbicidal ratio of 40% or higher and lower than 70%)

CON=C(C)CC1CC(OC(=O)Cc2ccc(OC)cc2)=C(c2c(C)cc(C)cc2C)C1=O (centres unmarked) [1-156]
Q: Galium spurium, herbicidal effect grade (Galium spurium): 3 (Herbicidal ratio of 40% or higher and lower than 70%) | Herbicidal effect grade, A: Echinochloa oryzacola Vasing. [1]: 5 (Herbicidal ratio of 90% or more (almost completely withered)) | M: Abutilon theophrasti, herbicidal effect grade (Abutilon theophrasti; 320 g/ha): 5 (Herbicidal ratio of 90% or more (almost completely withered)) | d: soybean, effect on crop grade (soybean): 3 (Herbicidal ratio of 40% or higher and lower than 70%) | c: corn, effect on crop grade (corn): 4 (Herbicidal ratio of 70% or higher and lower than 90%) | herbicidal effect on E, grade 0-5 (Cyperus difformis): 5 (Herbicidal ratio of 90% or more (almost completely withered)) | N: Amaranthus retroflexus, herbicidal effect grade (Amaranthus retroflexus; 320 g/ha): 5 (Herbicidal ratio of 90% or more (almost completely withered)) | R: Veronica persica, herbicidal effect grade (Veronica persica): 4 (Herbicidal ratio of 70% or higher and lower than 90%) | O: Chenopodium album, herbicidal effect grade (Chenopodium album): 2 (Herbicidal ratio of 20% or higher and lower than 40%) | e: wheat, effect grade on crop (wheat): 5 (Herbicidal ratio of 90% or more (almost completely withered))

Cc1cc(C)c(C2=C(O)CC(CC(=O)C3CC3)C2=O)c(C)c1 (centres unmarked) [2-017]
L: Apera spica-venti, herbicidal effect grade (Apera spica-venti): 3 (Herbicidal ratio of 40% or higher and lower than 70%) | Herbicidal effect grade, A: Echinochloa oryzacola Vasing. [1]: 5 (Herbicidal ratio of 90% or more (almost completely withered)) | M: Abutilon theophrasti, herbicidal effect grade (Abutilon theophrasti; [2]): 4 (Herbicidal ratio of 70% or higher and lower than 90%) | d: soybean, effect on crop grade (soybean): 0 (Herbicidal ratio of 5% or lower (almost no effect)) | c: corn, effect on crop grade (corn): 2 (Herbicidal ratio of 20% or higher and lower than 40%) | herbicidal effect on E, grade 0-5 (Cyperus difformis): 5 (Herbicidal ratio of 90% or more (almost completely withered)) | N: Amaranthus retroflexus, herbicidal effect grade (Amaranthus retroflexus; [2]): 0 (Herbicidal ratio of 5% or lower (almost no effect)) | R: Veronica persica, herbicidal effect grade (Veronica persica): 0 (Herbicidal ratio of 5% or lower (almost no effect)) | e: wheat, effect on crop grade (wheat): 0 (Herbicidal ratio of 5% or lower (almost no effect))

— patent US11000033B2, “Ketone or oxime compound, and herbicide” (NISSAN CHEMICAL CORPORATION, priority 2014, dated 2021)
